In BigSolDB 2.1:

Cc1cc(Cl)ccc1OCC(=O)O
solubility (mole fraction)
Details	278.15 K	283.15 K	288.15 K	293.15 K	298.15 K	303.15 K	308.15 K	313.15 K	318.15 K	323.15 K
in acetone	0.158	0.171	0.188	0.201	0.22	0.239	0.258	0.281	0.301	0.32
in acetonitrile	0.0254	0.0342	0.0458	0.0607	0.0789	0.0968	0.128	0.159	0.196	0.248
in ethanol	0.125	0.151	0.184	0.235	0.3	0.352	0.424	0.497	0.561	0.661
in ethyl acetate	0.101	0.104	0.116	0.127	0.146	0.17	0.192	0.221	0.25	0.299
in ethyl formate	0.0572	0.0618	0.0699	0.0798	0.0914	0.107	0.123	0.14	0.164	0.204
in isobutanol	0.0895	0.111	0.139	0.17	0.214	0.265	0.332	0.39	0.454	0.558
in isopropanol	0.123	0.134	0.154	0.175	0.2	0.237	0.27	0.314	0.364	0.428
in methyl acetate	0.0958	0.106	0.12	0.134	0.149	0.17	0.2	0.234	0.271	0.318
in n-butyl acetate	0.0915	0.0974	0.106	0.122	0.139	0.162	0.185	0.209	0.247	0.296
in n-propanol	0.127	0.138	0.159	0.197	0.238	0.279	0.342	0.405	0.46	0.54
in n-propyl acetate	0.0958	0.103	0.112	0.127	0.144	0.161	0.182	0.211	0.243	0.297
in toluene	0.00841	0.00904	0.011	0.0136	0.0172	0.0214	0.0274	0.0331	0.0419	0.0515
